Test results taken from PubChem BioAssay (NCI).
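GI50 is the concentration that inhibits growth by half. TGI: total growth inhibition.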

Tests used:
Assay in all cases: NCI-60 cell line screen, 384-well format
[1] = tested on: LOX IMVI melanoma
[2] = tested on: BT-549 breast
[3] = tested on: HOP-92 NSCLC
[4] = tested on: SNB-75 CNS
[5] = tested on: RPMI-8226 leukemia
[6] = tested on: SNB-19 CNS
[7] = tested on: MCF7 breast
[8] = tested on: SK-OV-3 ovarian
[9] = tested on: MDA-MB-435 melanoma
[10] = tested on: A498 renal
[11] = tested on: SW-620 colon
[12] = tested on: 786-0 renal
[13] = tested on: NCI/ADR-RES ovarian
[14] = tested on: SK-MEL-2 melanoma
[15] = tested on: NCI-H23 lung
[16] = tested on: NCI-H226 lung
[17] = tested on: EKVX NSCLC
[18] = tested on: TK-10 renal
[19] = tested on: HCT-15 colon
[20] = tested on: RXF 393 renal
[21] = tested on: OVCAR-5 ovarian
[22] = tested on: MDA-MB-231 breast
[23] = tested on: A549 NSCLC
[24] = tested on: T-47D breast
[25] = tested on: UACC-62 melanoma
[26] = tested on: SK-MEL-28 melanoma
[27] = tested on: SN12C renal
[28] = tested on: UACC-257 melanoma
[29] = tested on: ACHN renal
[30] = tested on: SF-295 CNS
[31] = tested on: OVCAR-3 ovarian
[32] = tested on: CAKI-1 renal
[33] = tested on: PC-3 prostate
[34] = tested on: NCI-H460 NSCLC
[35] = tested on: SK-MEL-5 melanoma
[36] = tested on: HS 578T breast
[37] = tested on: M14 melanoma
[38] = tested on: MALME-3M melanoma
[39] = tested on: HOP-62 NSCLC
[40] = tested on: K-562 leukemia
[41] = tested on: HL-60(TB) leukemia
[42] = tested on: U251 glioblastoma
[43] = tested on: NCI-H322M lung
[44] = tested on: OVCAR-8 ovarian
[45] = tested on: KM12 colon
[46] = tested on: IGROV1 ovarian
[47] = tested on: HCC-2998 colon
[48] = tested on: HCT-116 colon
[49] = tested on: SF-539 CNS
[50] = tested on: MOLT-4 leukemia
[51] = tested on: SR leukemia
[52] = tested on: UO-31 renal
[53] = tested on: NCI-H522 lung
[54] = tested on: OVCAR-4 ovarian
[55] = tested on: SF-268 CNS
[56] = tested on: MDA-MB-468 breast
[57] = tested on: DU-145 prostate
[58] = tested on: HT29 colon

## Cc1cnc(-c2ccc(-c3ccc(NC(=O)Nc4cccc(C(F)(F)F)c4)cc3F)c3c2C(=O)NC3)[nH]1
[1]
  GI50: 444 nM
  TGI: 2370 nM
[2]
  GI50: 130 nM
  TGI: 2820 nM
[3]
  GI50: 685 nM
  TGI: 3.31 µM
[4]
  GI50: 1130 nM
  TGI: 2660 nM
[5]
  GI50: 31 nM
  TGI: 1490 nM
[6]
  GI50: 1700 nM
  TGI: 4.54 µM
[7]
  GI50: 1080 nM
  TGI: 4.28 µM
[8]
  GI50: 926 nM
  TGI: 4.14 µM
[9]
  GI50: 1270 nM
  TGI: 10.1 µM
[10]
  GI50: 134 nM
  TGI: 2210 nM
[11]
  GI50: 83.5 nM
  TGI: 3.64 µM
[12]
  GI50: 1470 nM
  TGI: 3.73 µM
[13]
  GI50: 24 µM
  TGI: > 100 µM
[14]
  GI50: 751 nM
  TGI: 3.24 µM
[15]
  GI50: 783 nM
  TGI: 2390 nM
[16]
  GI50: 284 nM
  TGI: 3.15 µM
[17]
  GI50: 91.7 nM
  TGI: 4.16 µM
[18]
  GI50: 1050 nM
  TGI: 4.47 µM
[19]
  GI50: 926 nM
  TGI: 4.45 µM
[20]
  GI50: 923 nM
  TGI: 3.4 µM
[21]
  GI50: 5.69 µM
  TGI: 22.7 µM
[22]
  GI50: 1680 nM
  TGI: 8.56 µM
[23]
  GI50: 1050 nM
  TGI: 6.4 µM
[24]
  GI50: 2060 nM
  TGI: 6.71 µM
[25]
  GI50: 276 nM
  TGI: 4.73 µM
[26]
  GI50: 1300 nM
  TGI: 12.2 µM
[27]
  GI50: 75.5 nM
  TGI: 2270 nM
[28]
  GI50: 1730 nM
  TGI: 9.25 µM
[29]
  GI50: 681 nM
  TGI: 10.3 µM
[30]
  GI50: 93.3 nM
  TGI: 4.69 µM
[31]
  GI50: 75.5 nM
  TGI: 2110 nM
[32]
  GI50: 145 nM
  TGI: 8.83 µM
[33]
  GI50: 1960 nM
  TGI: 5.35 µM
[34]
  GI50: 38.1 nM
  TGI: 1360 nM
[35]
  GI50: 1010 nM
  TGI: 4.35 µM
[36]
  GI50: 50.3 nM
  TGI: 1530 nM
[37]
  GI50: 126 nM
  TGI: 3.18 µM
[38]
  GI50: 590 nM
  TGI: 3.82 µM
[39]
  GI50: 103 nM
  TGI: 2030 nM
[40]
  GI50: 51.6 nM
  TGI: 1300 nM
[41]
  GI50: 16.2 nM
  TGI: 1050 nM
[42]
  GI50: 1340 nM
  TGI: 3.17 µM
[43]
  GI50: 7.12 µM
  TGI: 26.5 µM
[44]
  GI50: 1210 nM
  TGI: 10.5 µM
[45]
  GI50: < 10 nM
  TGI: 1320 nM
[46]
  GI50: 1320 nM
  TGI: 12.4 µM
[47]
  GI50: 2860 nM
  TGI: 6.7 µM
[48]
  GI50: 248 nM
  TGI: 2220 nM
[49]
  GI50: 60.9 nM
  TGI: 1740 nM
[50]
  GI50: < 10 nM
  TGI: 11.7 nM
[51]
  GI50: < 10 nM
  TGI: 14.4 nM
[52]
  GI50: 81.7 nM
  TGI: 1460 nM
[53]
  GI50: 34.5 nM
  TGI: 1600 nM
[54]
  GI50: 96.5 nM
  TGI: 2660 nM
[55]
  GI50: 261 nM
  TGI: 3 µM
[56]
  GI50: 28.2 nM
  TGI: 75.4 nM
[57]
  GI50: 1270 nM
  TGI: 7.71 µM
[58]
  GI50: 2180 nM
  TGI: 13.6 µM
